Assays:
[1] = test system: ATF4 in Thapsigargin stimulated CCRF-CEM cells; assay: CCRF-CEM TG ATF4 ELISA, phenotypic assay for cellular inhibition of PERK preactivated by thapsigargin; assay type: cell-based; conditions: Homo sapiens, 3 h, compound three hours then 1 μM thapsigargin for an additional hour
Method: CCRF-CEM TG ATF4 ELISA, a Phenotypic Assay for Cellular Inhibition of PERK Preactivated by Thapsigargin (TG)
CCRF-CEM leukemia cells (catalog #CCL-116) were obtained from the American Type Culture Collection (ATTC, Manassas, VA). Briefly, cells were grown in RPMI-1640 medium supplemented with 10% heat-inactivated fetal bovine serum (Invitrogen, Carlsbad, CA) and 1% Penicillin/Streptomycin/L-Glutamine at 37° C., 5% CO2, and 95% humidity. Cells were expanded until reaching one million cells per mL at which time they were subcultured or harvested for assay use. One million five hundred thousand cells per well in 1 mL complete growth medium were dispensed into 12-well plates and incubated overnight. A serial dilution of test compound was added and cells were incubated at 37° C., 5% CO2, and 95% for three hours, then 1 μM thapsigargin was added and cells were incubated for an additional hour at 37° C., 5% CO2, and 95%. Cells were lysed then ATF4 levels were measured using an ELISA assay (Proteintech, Rosemont, IL). Absorbance was measured at 450 nm and 544 nM using a Synergy2 or equivalent reader (Biotek, Winooski VT). Data was analyzed using PRISM software (Graphpad, San Diego, CA) to calculate IC50 values.

[2] = test system: ASNase treated CCRF-CEM cells; assay: CCRF-CEM ASNase cell proliferation assay, phenotypic assay for cellular inhibition of GCN2; assay type: cell-based; conditions: Homo sapiens, 1 mU/mL ASNase, 72 h, resazurin
Method: CCRF-CEM ASNase Cell Proliferation Assay, a Phenotypic Assay for Cellular Inhibition of GCN2.
CCRF-CEM leukemia cells (catalog #CCL-116) were obtained from the American Type Culture Collect (ATTC, Manassas, VA). Cells were grown in RPMI-1640 medium supplemented with 10% heat-inactivated fetal bovine serum (Invitrogen, Carlsbad, CA) and 1% Penicillin/Streptomycin/L-Glutamine at 37° C., 5% CO2, and 95% humidity. Cells were expanded until reaching one million cells per mL at which time they are subcultured or harvested for assay use. Ten thousand cells per well in 200 μL RPMI-1640 supplemented with 10% heat-inactivated fetal bovine serum and 1% Penicillin/Streptomycin were dispensed into a 96-well black clear bottom plate. A serial dilution of test compound and 1 mU/mL ASNase was added in triplicate and plates were incubated for 72 h at 37° C., 5% CO2, and 95% humidity. At the end of the incubation, 40 μL of a […] solution of resazurin (Sigma, St. Louis, MO) in PBS was added to each well of the plate and plates were incubated for an additional 6 h at 37° C., 5% CO2, and 95% humidity. Plates were read on a Synergy2 or equivalent reader (Biotek, Winooski VT) using an excitation of 540 nm and an emission of 600 nm. Data was analyzed using GraphPad Prism software (GraphPad, San Diego, CA) to calculate IC50 values.

GCN2 kinase = molecular target: T1, GCN2 kinase (Homo sapiens, UniProt Q9P2K8); assay: Biochemical assay for GCN2 (TR-FRET kinase activity assay); conditions: 2 nM GCN2, 1 mM ATP, 3-hour incubation
T1 construct: G556E with a; purchased Carna Biosciences
Method: Biochemical assay for GCN2
Activity of GCN2 kinase was determined using a TR-FRET kinase activity assay (e.g., Analytical Biochemistry, 2006, 356, 108-116). Assays were conducted in 384-well plates (13 μL assay volume) using 2 nM GCN2 (Carna Biosciences), 130 nM GFP-EIf2α (Invitrogen), 0.2 mg/mL E. coli tRNA (sigma) and 1 mM ATP in kinase buffer (Invitrogen). Inhibition of GCN2 was measured by adding serial diluted test compound (final assay concentration of 0.5% DMSO) followed by a 3-hour incubation. Tb-peIF2α (pSer52) antibody (Invitrogen) (2 nM final assay concentration) in kinase buffer containing EDTA (final assay concentration of 20 mM) was added. After a 60 min incubation at room temperature, TR-FRET was monitored using an excitation wavelength of 340 nm and emission wavelengths of 490 nm and 520 nm. The emission ratio (520/490) at each compound concentration of was converted to percent inhibition using controls (i.e., reaction with no test compound and reaction with a known inhibitor) and IC50 values were calculated by fitting a four-parameter sigmoidal curve to the data using Prism (GraphPad software).

PERK kinase = molecular target: T2, PERK kinase (Homo sapiens, UniProt Q9NZJ5, A704S); assay: Biochemical assay for PERK (coupled pyruvate kinase/lactate dehydrogenase assay); conditions: 10 nM PERK, 1 mM ATP, reaction rate 2-3 h time frame, 30° C.
T2 construct: GST (with thrombin site LVPRGS); purchased Beryllium
T2 sequence (Q9NZJ5 with tags, fused parts or gaps A704S): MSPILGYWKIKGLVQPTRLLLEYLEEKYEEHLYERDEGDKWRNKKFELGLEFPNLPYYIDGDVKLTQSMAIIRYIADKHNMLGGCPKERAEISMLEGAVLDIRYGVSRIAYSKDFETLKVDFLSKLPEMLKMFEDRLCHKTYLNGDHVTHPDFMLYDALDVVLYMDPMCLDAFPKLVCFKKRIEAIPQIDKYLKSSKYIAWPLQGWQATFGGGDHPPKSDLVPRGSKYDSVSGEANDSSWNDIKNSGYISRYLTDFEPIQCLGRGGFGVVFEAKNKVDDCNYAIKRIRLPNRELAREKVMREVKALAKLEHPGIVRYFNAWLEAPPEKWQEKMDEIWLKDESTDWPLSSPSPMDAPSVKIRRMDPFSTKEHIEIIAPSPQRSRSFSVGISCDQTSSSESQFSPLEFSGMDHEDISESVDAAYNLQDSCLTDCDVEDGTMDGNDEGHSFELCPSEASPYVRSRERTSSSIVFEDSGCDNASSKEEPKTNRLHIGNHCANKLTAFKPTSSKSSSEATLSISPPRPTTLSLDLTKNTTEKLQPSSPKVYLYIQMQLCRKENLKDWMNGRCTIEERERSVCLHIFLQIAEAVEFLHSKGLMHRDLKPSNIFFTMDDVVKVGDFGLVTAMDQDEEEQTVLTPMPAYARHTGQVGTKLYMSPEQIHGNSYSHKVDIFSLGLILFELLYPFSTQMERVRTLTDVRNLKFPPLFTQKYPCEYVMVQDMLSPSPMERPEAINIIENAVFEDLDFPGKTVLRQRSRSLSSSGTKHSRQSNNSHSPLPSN
Method: Biochemical Assay for PERK
Activity of PERK kinase was determined spectroscopically using a coupled pyruvate kinase/lactate dehydrogenase assay that continuously monitors the ATP hydrolysis-dependent oxidation of NADH (Science, 2000, 289, 1938-1942). Assays were conducted in 384-well plates (100 μL final volume) using 10 nM PERK (from Beryllium), 0.25 mg/mL Myelin Basic Protein substrate, 1.5 units pyruvate kinase, 2.1 units lactate dehydrogenase, 1 mM phosphoenol pyruvate, 0.28 mM NADH and 1 mM ATP in assay buffer (100 mM Tris, pH 7.5, 15 mM MgCl2, 0.5 mM DTT, 0.004% (w/v) BSA, and 0.004% Triton X-100). Inhibition of PERK was measured by adding serial diluted test compound (final assay concentration of 1% DMSO). A decrease in absorption at 340 nm was monitored continuously for 6 hours at 30° C. on a multi-mode microplate reader (BioTek). The reaction rate was calculated using the 2-3 h time frame. The reaction rate at each concentration of compound was converted to percent inhibition using controls (i.e., reaction with no test compound and reaction with a known inhibitor) and IC50 values were calculated using software routines in Prism (GraphPad software).

Row | IC50 [1] [nM] | IC50 [2] [nM] | IC50 (GCN2 kinase) [nM] | IC50 (PERK kinase) [nM] | Structure (SMILES)
1 | 1000 to 10000 | 1000 to 10000 | 1000 to 10000 | 500 to 1000 | Cn1cc(-c2cccc(NS(=O)(=O)c3ccc(Cl)c(CO)c3F)c2F)c2c(N)ncnc21 [Example 5]
2 | 1000 to 10000 | 1000 to 10000 | 1000 to 10000 | ≤ 100 | Cc1c(CO)cc(F)cc1S(=O)(=O)Nc1cccc(-c2nc(C)n3ccnc(N)c23)c1F [Example 6]
3 | 1000 to 10000 | 1000 to 10000 | 500 to 1000 | ≤ 100 | Cc1nc(-c2cccc(NS(=O)(=O)c3cc(Cl)cc(CO)c3F)c2F)c2c(N)nccn12 [Example 7]
4 | 100 to 500 | 500 to 1000 | 500 to 1000 | ≤ 100 | Cc1nc(-c2cccc(NS(=O)(=O)c3cc(F)cc(CO)c3Cl)c2F)c2c(N)nccn12 [Example 8]
5 | 1000 to 10000 | 1000 to 10000 | 1000 to 10000 | 100 to 500 | Cn1cc(-c2cccc(NS(=O)(=O)c3cc(CO)c(F)cc3F)c2F)c2c(N)ncnc21 [Example 10]
6 | 500 to 1000 | 1000 to 10000 | 1000 to 10000 | 100 to 500 | COc1c(CO)cc(Cl)cc1S(=O)(=O)Nc1cccc(-c2nc(C)n3ccnc(N)c23)c1F [Example 11]
7 | 1000 to 10000 | 1000 to 10000 | 1000 to 10000 | 100 to 500 | Cc1nc(-c2cccc(NS(=O)(=O)c3cc(F)cc(CO)c3F)c2F)c2c(N)nccn12 [Example 15]
8 | 100 to 500 | 100 to 500 | 100 to 500 | ≤ 100 | COCCNc1nc(-c2cccc(NS(=O)(=O)c3cc(Cl)cc(CO)c3Cl)c2F)c2c(N)nccn12 [Example 23]
9 | 1000 to 10000 | 1000 to 10000 | 1000 to 10000 | 100 to 500 | Cn1cc(-c2cccc(NS(=O)(=O)c3ccc(F)c(CO)c3Cl)c2F)c2c(N)ncnc21 [Example 24]
10 | 100 to 500 | 100 to 500 | ≤ 100 | ≤ 100 | CCNc1nc(-c2cccc(NS(=O)(=O)c3cc(Cl)cc(CO)c3Cl)c2F)c2c(N)nccn12 [Example 27]
11 | 1000 to 10000 | 1000 to 10000 | 1000 to 10000 | 500 to 1000 | COc1ncc(Cl)cc1S(=O)(=O)Nc1cc(F)c(F)c(-c2nc(C)n3ccnc(N)c23)c1 [Example 28]
12 | 1000 to 10000 | 1000 to 10000 | 1000 to 10000 | 1000 to 10000 | CCC(C)(C)C(=O)OCc1cc(Cl)cc(S(=O)(=O)Nc2cccc(-c3nc(C)n4ccnc(N)c34)c2F)c1Cl [Example 29]
13 | 1000 to 10000 | 1000 to 10000 | 1000 to 10000 | 100 to 500 | CC(=O)OCc1cc(Cl)cc(S(=O)(=O)Nc2cccc(-c3nc(C(C)(C)C)n4ccnc(N)c34)c2F)c1Cl [Example 30]
14 | 1000 to 10000 | 1000 to 10000 | 1000 to 10000 | 1000 to 10000 | Cc1nc(-c2cccc(NS(=O)(=O)c3cc(Cl)cc(COC(=O)C4CC4)c3Cl)c2F)c2c(N)nccn12 [Example 31]
15 | 1000 to 10000 | 1000 to 10000 | – | 500 to 1000 | CCC(=O)OCc1cc(Cl)cc(S(=O)(=O)Nc2cccc(-c3nc(C)n4ccnc(N)c34)c2F)c1Cl [Example 32]
16 | 100 to 500 | 100 to 500 | 1000 to 10000 | 500 to 1000 | CCCC(=O)OCc1cc(Cl)cc(S(=O)(=O)Nc2cccc(-c3nc(C)n4ccnc(N)c34)c2F)c1Cl [Example 33]
17 | 1000 to 10000 | 1000 to 10000 | 1000 to 10000 | 100 to 500 | Cn1cc(-c2cccc(NS(=O)(=O)c3ccc(Br)c(C(F)(F)F)c3)c2F)c2c(N)ncnc21 [Example 36]
18 | 100 to 500 | 500 to 1000 | 100 to 500 | ≤ 100 | COc1cc(F)c(S(=O)(=O)Nc2cccc(-c3cn(C)c4ncnc(N)c34)c2F)cc1Cl [Example 37]
19 | 1000 to 10000 | 1000 to 10000 | 1000 to 10000 | 100 to 500 | COC(=O)c1cccc(S(=O)(=O)Nc2cccc(-c3cn(C)c4ncnc(N)c34)c2F)c1Cl [Example 39]
20 | 1000 to 10000 | 1000 to 10000 | 1000 to 10000 | ≤ 100 | COC(=O)c1cc(Cl)cc(S(=O)(=O)Nc2cccc(-c3cn(C)c4ncnc(N)c34)c2F)c1Cl [Example 40]
21 | 100 to 500 | 1000 to 10000 | 1000 to 10000 | ≤ 100 | COc1cc(Cl)c(S(=O)(=O)Nc2cccc(-c3cn(C)c4ncnc(N)c34)c2F)cc1Cl [Example 41]
22 | 1000 to 10000 | 1000 to 10000 | 100 to 500 | ≤ 100 | Cn1cc(-c2cccc(NS(=O)(=O)c3cc(Cl)cc(Br)c3Cl)c2F)c2c(N)ncnc21 [Example 42]
23 | 500 to 1000 | 1000 to 10000 | 1000 to 10000 | ≤ 100 | COc1ccc(S(=O)(=O)Nc2cccc(-c3cn(C)c4ncnc(N)c34)c2F)cc1Cl [Example 44]
24 | 100 to 500 | 1000 to 10000 | 1000 to 10000 | ≤ 100 | COc1ncc(Cl)cc1S(=O)(=O)Nc1cccc(-c2cn(C)c3ncnc(N)c23)c1F [Example 45, N-(3-(4-amino-7-methyl-7H-pyrrolo[2,3-d]pyrimidin-5-yl)-2-fluorophenyl)-5-chloro-2-methoxypyridine-3-sulfonamide]
25 | 1000 to 10000 | 1000 to 10000 | 500 to 1000 | ≤ 100 | COCc1cc(Cl)cc(S(=O)(=O)Nc2cccc(-c3nc(C)n4ccnc(N)c34)c2F)c1Cl [Example 48, N-(3-(8-amino-3-methylimidazo[1,5-a]pyrazin-1-yl)-2-fluorophenyl)-2,5-dichloro-3-(methoxymethyl)benzenesulfonamide]
26 | 500 to 1000 | 1000 to 10000 | 1000 to 10000 | 100 to 500 | Cn1cc(-c2cccc(NS(=O)(=O)c3cc(Cl)cc(CN)c3Cl)c2F)c2c(N)ncnc21 [Example 49]
27 | 1000 to 10000 | 1000 to 10000 | 1000 to 10000 | 500 to 1000 | CNCc1cc(Cl)cc(S(=O)(=O)Nc2cccc(-c3cn(C)c4ncnc(N)c34)c2F)c1Cl [Example 50]
28 | 1000 to 10000 | 1000 to 10000 | 1000 to 10000 | ≤ 100 | CO/N=C\c1cc(Cl)cc(S(=O)(=O)Nc2cccc(-c3cn(C)c4ncnc(N)c34)c2F)c1Cl [Example 53]

Source: patent US20260226069A1, “GCN2 AND PERK KINASE MODULATORS AND METHODS OF USE THEREOF” (Deciphera Pharmaceuticals, LLC, priority 2023, published 2026)
